Data from ChEMBL document CHEMBL2413059, “Novel quinoxaline 1,4-di-N-oxide derivatives as new potential antichagasic agents” (Eur J Med Chem, 2013).

How the values were obtained:
[1] = Selectivity index, ratio of IC50 for mouse J774 cells to IC50 for epimastigote form of Trypanosoma cruzi Tulahuen 2; assay type: toxicity, cell-based; settings: read-out: Ratio IC50
J774 = experiment: Cytotoxicity against mouse J774 cells assessed as cell viability after 48 hrs by MTT assay; assay type: cell-based; settings: J774, 48 h
Trypanosoma cruzi [2] = experiment: Antichagasic activity against epimastigote form of Trypanosoma cruzi Tulahuen 2 assessed as parasite growth inhibition at 25 uM measured on day 5 relative to control; assay type: functional; settings: Tulahuen 2, 120 h, read-out: GI
Salmonella typhimurium [3] = experiment: Mutagenicity in Salmonella typhimurium TA98 at 0.61 to 50 ug/plate after 1 hr by Ames test in presence of S9 fraction; assay type: toxicity, organism-based; settings: salmonella enterica subsp. enterica serovar typhimurium, s9, 1 h
Salmonella typhimurium [4] = experiment: Mutagenicity in Salmonella typhimurium TA98 at 0.61 to 50 ug/plate after 1 hr by Ames test in absence of S9 fraction; assay type: toxicity, organism-based; settings: salmonella enterica subsp. enterica serovar typhimurium
Trypanosoma cruzi [5] = experiment: Antichagasic activity against epimastigote form of Trypanosoma cruzi Tulahuen 2 assessed as parasite growth inhibition measured on day 5; assay type: functional, organism-based; settings: Tulahuen 2, 120 h
Salmonella typhimurium [6] = experiment: Mutagenicity in Salmonella typhimurium TA98 at 0.06 to 5 ug/plate after 1 hr by Ames test in presence of S9 fraction; assay type: toxicity, organism-based; settings: salmonella enterica subsp. enterica serovar typhimurium, s9, 1 h
Salmonella typhimurium [7] = experiment: Mutagenicity in Salmonella typhimurium TA98 at 0.06 to 5 ug/plate after 1 hr by Ames test in absence of S9 fraction; assay type: toxicity, organism-based; settings: salmonella enterica subsp. enterica serovar typhimurium
Salmonella typhimurium [8] = experiment: Mutagenicity in Salmonella typhimurium TA98 at 0.3 to 25 ug/plate after 1 hr by Ames test in presence of S9 fraction; assay type: toxicity, organism-based; settings: salmonella enterica subsp. enterica serovar typhimurium, s9, 1 h
Salmonella typhimurium [9] = experiment: Mutagenicity in Salmonella typhimurium TA98 at 0.3 to 25 ug/plate after 1 hr by Ames test in absence of S9 fraction; assay type: toxicity, organism-based; settings: salmonella enterica subsp. enterica serovar typhimurium
Salmonella typhimurium [10] = experiment: Mutagenicity in Salmonella typhimurium TA98 at 0.012 to 1 ug/plate after 1 hr by Ames test in presence of S9 fraction; assay type: toxicity, organism-based; settings: salmonella enterica subsp. enterica serovar typhimurium, s9, 1 h
Salmonella typhimurium [11] = experiment: Mutagenicity in Salmonella typhimurium TA98 at 0.012 to 1 ug/plate after 1 hr by Ames test in absence of S9 fraction; assay type: toxicity, organism-based; settings: salmonella enterica subsp. enterica serovar typhimurium
Salmonella typhimurium [12] = experiment: Mutagenicity in Salmonella typhimurium TA98 at 0.06 to 12.5 ug/plate after 1 hr by Ames test in presence of S9 fraction; assay type: toxicity, organism-based; settings: salmonella enterica subsp. enterica serovar typhimurium, s9, 1 h
Salmonella typhimurium [13] = experiment: Mutagenicity in Salmonella typhimurium TA98 at 0.06 to 12.5 ug/plate after 1 hr by Ames test in absence of S9 fraction; assay type: toxicity, organism-based; settings: salmonella enterica subsp. enterica serovar typhimurium
Salmonella typhimurium [14] = experiment: Mutagenicity in Salmonella typhimurium TA98 at 1.2 X 10^-3 to 5 ug/plate after 1 hr by Ames test in presence of S9 fraction; assay type: toxicity, organism-based; settings: salmonella enterica subsp. enterica serovar typhimurium, s9, 1 h
Salmonella typhimurium [15] = experiment: Mutagenicity in Salmonella typhimurium TA98 at 1.2 X 10^-3 to 5 ug/plate after 1 hr by Ames test in absence of S9 fraction; assay type: toxicity, organism-based; settings: salmonella enterica subsp. enterica serovar typhimurium
Trypanosoma cruzi [16] = experiment: Ratio of nifurtimox IC50 to compound IC50 for epimastigote form of Trypanosoma cruzi Tulahuen 2; assay type: functional

| SMILES | IC50 (Trypanosoma cruzi [5]) [µM] | selectivity ratio [1] | IC50 (J774) [µM] | inhibition of growth at 25 µM (Trypanosoma cruzi [2]) [%] | Activity (Salmonella typhimurium [6]) | Activity (Salmonella typhimurium [7]) | also measured |
| --- | --- | --- | --- | --- | --- | --- | --- |
| CC1CS(=O)(=O)CCN1/N=C/c1ccc([N+](=O)[O-])o1 (configuration not stated) [NIFURTIMOX] | – | 41 | 316 | 100 | – | – | – |
| CCOC(=O)c1c(C(F)(F)F)[n+]([O-])c2ccc(F)cc2[n+]1[O-] | 3.3 | 0.1 | 0.5 | 100 | Non-toxic | Toxic | – |
| CCOC(=O)c1c(C(F)(F)F)[n+]([O-])c2ccc(OC)cc2[n+]1[O-] | 4.8 | 1.2 | 6 | 100 | – | – | Activity (Salmonella typhimurium [8]): Toxic; Activity (Salmonella typhimurium [9]): Toxic |
| COC(=O)c1c(C(F)(F)F)[n+]([O-])c2cc(Cl)c(Cl)cc2[n+]1[O-] | 10.8 | < 0.1 | 0.5 | 100 | – | – | Activity (Salmonella typhimurium [10]): Non-toxic; Activity (Salmonella typhimurium [11]): Non-toxic |
| COC(=O)c1c(C(F)(F)F)[n+]([O-])c2ccccc2[n+]1[O-] | 2.6 | 7.3 | 19 | 100 | Toxic | Toxic | – |
| COC(=O)c1c(C(F)(F)F)[n+]([O-])c2cc(F)c(F)cc2[n+]1[O-] | 1.5 | – | – | 100 | Non-toxic | Toxic | – |
| COC(=O)c1c(C(F)(F)F)[n+]([O-])c2ccc(F)cc2[n+]1[O-] | 3.5 | 0.7 | 2.5 | 100 | – | – | Activity (Salmonella typhimurium [8]): Non-toxic; Activity (Salmonella typhimurium [9]): Toxic |
| COC(=O)c1c(C(F)(F)F)[n+]([O-])c2ccc(C)cc2[n+]1[O-] | 13.7 | 0.3 | 4 | 96.1 | Toxic | Toxic | – |
| COC(=O)c1c(C(F)(F)F)[n+]([O-])c2ccc(OC)cc2[n+]1[O-] | 4.6 | – | – | 86.6 | – | – | Activity (Salmonella typhimurium [8]): Toxic; Activity (Salmonella typhimurium [9]): Toxic |
| CCOC(=O)c1c(C(F)(F)F)[n+]([O-])c2ccccc2[n+]1[O-] | 4 | 1 | 4 | 100 | Non-toxic | Toxic | – |

Now from value to compound, other results behind:

| IC50 (Trypanosoma cruzi [5]) [µM] | SMILES | selectivity ratio [1] | IC50 (J774) [µM] | inhibition of growth at 25 µM (Trypanosoma cruzi [2]) [%] | Activity (Salmonella typhimurium [6]) | Activity (Salmonella typhimurium [7]) | also measured |
| --- | --- | --- | --- | --- | --- | --- | --- |
| 5 | COC(=O)c1c(C(F)(F)F)[n+]([O-])c2cc(C)c(C)cc2[n+]1[O-] | 0.8 | 4 | 91.6 | – | – | Activity (Salmonella typhimurium [3]): Toxic; Activity (Salmonella typhimurium [4]): Toxic |
| 1 | CCOC(=O)c1c(C(F)(F)F)[n+]([O-])c2ccc(C(F)(F)F)cc2[n+]1[O-] | 4.2 | 4.2 | 100 | – | – | Activity (Salmonella typhimurium [12]): Non-toxic; Activity (Salmonella typhimurium [13]): Non-toxic |
| 4.8 | CCOC(=O)c1c(C(F)(F)F)[n+]([O-])c2ccc(C)cc2[n+]1[O-] | 1.4 | 7 | 100 | – | – | Activity (Salmonella typhimurium [8]): Non-toxic; Activity (Salmonella typhimurium [9]): Toxic |
| 1.8 | COC(=O)c1c(C(F)(F)F)[n+]([O-])c2ccc(Cl)cc2[n+]1[O-] | – | – | 100 | – | – | Activity (Salmonella typhimurium [14]): Non-toxic; Activity (Salmonella typhimurium [15]): Toxic |
| 5 | COC(=O)c1c(C(F)(F)F)[n+]([O-])c2ccc(C(F)(F)F)cc2[n+]1[O-] | 0.8 | 4 | 100 | Non-toxic | Non-toxic | – |
| 1.8 | CCOC(=O)c1c(C(F)(F)F)[n+]([O-])c2ccc(Cl)cc2[n+]1[O-] | – | – | 100 | Non-toxic | Toxic | – |
| 2.9 | CCOC(=O)c1c(C(F)(F)F)[n+]([O-])c2cc(Cl)c(Cl)cc2[n+]1[O-] | – | – | 100 | Non-toxic | Non-toxic | – |
| 7.6 | CCOC(=O)c1c(C(F)(F)F)[n+]([O-])c2cc(C)c(C)cc2[n+]1[O-] | 0.5 | 4 | 87.5 | – | – | Activity (Salmonella typhimurium [12]): Non-toxic; Activity (Salmonella typhimurium [13]): Toxic |
| 0.4 | CCOC(=O)c1c(C(F)(F)F)[n+]([O-])c2cc(F)c(F)cc2[n+]1[O-] | 10 | 4 | 100 | Non-toxic | Toxic | Ratio IC50 (Trypanosoma cruzi [16]): 18 |
